# Where “and” joins values, the source holds several entries; their conditions need not be identical. Equal values may be shown once.
# Experiments:
# Assay in all cases: PamChip tyrosine kinase microarray
# Format in all cases: biochemical
# Conditions in all cases: 0.1 µM, HL60 lysate
# FGFR4 (P22455) = molecular target: T1, FGFR4 (P22455) (Homo sapiens, UniProt P22455)
# T1 construct: purchased PamGene (PamChip PTK array, Upstream Kinase Analysis)
# Procedure, shortened: (§1)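 HL60 (AML) cell lysate was spiked with compound at 0.001, 0.01, 0.1, 1, 10 and 50 µM, or 2% v/v DMSO as control, then profiled in technical replicates on a tyrosine kinase peptide array of 196 phosphosites. Kinase activity was inferred from peptide-set changes using an upstream kinase tool.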
# Fer (P16591) = molecular target: T2, Fer (P16591) (Homo sapiens, UniProt P16591)
# T2 construct: purchased PamGene (PamChip PTK array, Upstream Kinase Analysis)
# T2 sequence (P16591 whole entry): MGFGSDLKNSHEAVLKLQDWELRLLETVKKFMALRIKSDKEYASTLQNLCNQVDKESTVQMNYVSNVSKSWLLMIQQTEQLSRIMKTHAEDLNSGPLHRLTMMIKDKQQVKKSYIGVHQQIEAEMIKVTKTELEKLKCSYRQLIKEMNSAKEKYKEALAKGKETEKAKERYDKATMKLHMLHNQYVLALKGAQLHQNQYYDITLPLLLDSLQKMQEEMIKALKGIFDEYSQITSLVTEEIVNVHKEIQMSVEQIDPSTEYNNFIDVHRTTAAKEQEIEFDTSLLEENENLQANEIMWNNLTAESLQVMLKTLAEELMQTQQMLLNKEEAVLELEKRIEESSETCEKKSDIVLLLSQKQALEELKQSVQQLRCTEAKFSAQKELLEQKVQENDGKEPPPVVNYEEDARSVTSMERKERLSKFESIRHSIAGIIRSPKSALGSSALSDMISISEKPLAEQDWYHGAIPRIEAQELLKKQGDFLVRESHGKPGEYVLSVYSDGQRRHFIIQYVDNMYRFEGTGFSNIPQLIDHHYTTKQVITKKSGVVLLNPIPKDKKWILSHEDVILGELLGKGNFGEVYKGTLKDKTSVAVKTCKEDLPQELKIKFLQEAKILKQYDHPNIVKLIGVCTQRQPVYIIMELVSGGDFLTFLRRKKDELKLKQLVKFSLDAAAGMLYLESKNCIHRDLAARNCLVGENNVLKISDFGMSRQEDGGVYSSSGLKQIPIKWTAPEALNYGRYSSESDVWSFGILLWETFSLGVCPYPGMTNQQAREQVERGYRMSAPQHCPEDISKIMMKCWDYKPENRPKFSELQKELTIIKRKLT
# Procedure, shortened: as §1
# Lmr1 (Q6ZMQ8) = molecular target: T3, Lmr1 (Q6ZMQ8) (Homo sapiens, UniProt Q6ZMQ8)
# T3 construct: purchased PamGene (PamChip PTK array, Upstream Kinase Analysis)
# T3 sequence (Q6ZMQ8 1-1374): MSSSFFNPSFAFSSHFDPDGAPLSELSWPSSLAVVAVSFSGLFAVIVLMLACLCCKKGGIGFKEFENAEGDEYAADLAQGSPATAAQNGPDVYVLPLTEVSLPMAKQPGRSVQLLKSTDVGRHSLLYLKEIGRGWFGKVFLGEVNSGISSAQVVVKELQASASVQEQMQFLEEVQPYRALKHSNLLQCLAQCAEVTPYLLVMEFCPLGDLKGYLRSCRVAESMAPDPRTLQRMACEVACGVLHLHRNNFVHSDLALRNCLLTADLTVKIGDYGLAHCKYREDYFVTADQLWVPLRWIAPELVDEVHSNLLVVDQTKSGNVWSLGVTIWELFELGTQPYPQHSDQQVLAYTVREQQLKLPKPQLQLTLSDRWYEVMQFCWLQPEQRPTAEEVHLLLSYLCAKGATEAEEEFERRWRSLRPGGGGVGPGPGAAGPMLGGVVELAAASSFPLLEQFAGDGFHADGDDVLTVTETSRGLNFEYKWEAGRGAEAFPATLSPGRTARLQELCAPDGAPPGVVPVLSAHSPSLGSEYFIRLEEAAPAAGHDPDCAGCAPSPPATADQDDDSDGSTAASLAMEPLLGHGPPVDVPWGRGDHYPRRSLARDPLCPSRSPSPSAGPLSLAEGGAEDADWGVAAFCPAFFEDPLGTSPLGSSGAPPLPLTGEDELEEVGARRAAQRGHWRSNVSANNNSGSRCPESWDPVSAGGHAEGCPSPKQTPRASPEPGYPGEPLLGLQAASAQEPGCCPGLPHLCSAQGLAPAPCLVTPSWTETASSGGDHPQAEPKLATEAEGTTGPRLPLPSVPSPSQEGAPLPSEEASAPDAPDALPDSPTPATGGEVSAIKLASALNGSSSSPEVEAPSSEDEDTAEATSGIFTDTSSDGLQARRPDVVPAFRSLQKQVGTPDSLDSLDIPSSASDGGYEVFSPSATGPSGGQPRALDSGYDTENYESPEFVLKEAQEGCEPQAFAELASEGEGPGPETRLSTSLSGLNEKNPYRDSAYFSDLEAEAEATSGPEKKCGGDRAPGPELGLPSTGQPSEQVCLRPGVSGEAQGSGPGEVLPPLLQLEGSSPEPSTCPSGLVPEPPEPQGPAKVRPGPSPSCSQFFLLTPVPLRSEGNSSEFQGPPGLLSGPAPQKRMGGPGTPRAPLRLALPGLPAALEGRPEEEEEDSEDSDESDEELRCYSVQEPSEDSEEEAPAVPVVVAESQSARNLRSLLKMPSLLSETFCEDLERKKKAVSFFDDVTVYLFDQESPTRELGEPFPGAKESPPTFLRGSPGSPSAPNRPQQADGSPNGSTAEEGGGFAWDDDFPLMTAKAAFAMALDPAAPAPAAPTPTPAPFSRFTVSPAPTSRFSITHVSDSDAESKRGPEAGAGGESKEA
# Procedure, shortened: as §1
# T1 sequence (P22455 22-802): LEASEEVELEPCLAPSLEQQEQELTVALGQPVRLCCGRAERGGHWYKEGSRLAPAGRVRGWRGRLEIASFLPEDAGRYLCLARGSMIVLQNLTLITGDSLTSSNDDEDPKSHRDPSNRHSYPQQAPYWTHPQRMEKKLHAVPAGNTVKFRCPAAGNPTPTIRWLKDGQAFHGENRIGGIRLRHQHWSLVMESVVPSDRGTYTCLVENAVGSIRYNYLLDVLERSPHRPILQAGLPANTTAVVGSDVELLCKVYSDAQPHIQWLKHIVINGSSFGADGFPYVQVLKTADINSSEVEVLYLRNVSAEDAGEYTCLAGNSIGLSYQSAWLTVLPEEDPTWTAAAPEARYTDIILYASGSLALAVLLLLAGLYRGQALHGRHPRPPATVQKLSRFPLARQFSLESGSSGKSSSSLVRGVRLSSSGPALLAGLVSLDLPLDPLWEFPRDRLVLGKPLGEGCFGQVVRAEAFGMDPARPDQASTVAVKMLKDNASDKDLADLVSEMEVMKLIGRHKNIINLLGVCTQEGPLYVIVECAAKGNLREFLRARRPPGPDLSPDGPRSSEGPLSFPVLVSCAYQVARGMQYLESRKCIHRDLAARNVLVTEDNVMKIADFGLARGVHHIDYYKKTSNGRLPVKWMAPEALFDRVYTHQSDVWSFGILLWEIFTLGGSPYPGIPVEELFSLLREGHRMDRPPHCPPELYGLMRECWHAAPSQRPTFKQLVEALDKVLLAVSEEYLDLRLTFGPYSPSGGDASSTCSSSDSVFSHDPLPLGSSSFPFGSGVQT
compound,measurement,setting,value
"COc1ccc(/C=C2\N=C(C)N(c3ccc(CC(=O)NCc4ccccc4)cc3)C2=O)cc1 [Compound 4c, (Z)-N-Benzyl-2-(4-(4-(4-methoxybenzylidene)-2-methyl-5-oxo-4,5-dihydro-1H-imidazol-1-yl)phenyl)acetamide]",Mean Significance Score,FGFR4 (P22455),2.023
same,Mean Specificity Score,FGFR4 (P22455),0.5516
same,Mean Final score (Kinase score),FGFR4 (P22455); listed as KIM-161,2.73 and 2.7333
same,Mean Final score (Kinase score),Fer (P16591),2.491
same,Mean Kinase Statistic,Fer (P16591),-1.259
same,Mean Significance Score,Fer (P16591),2.048
same,Mean Specificity Score,Fer (P16591),0.455
same,Mean Final score (Kinase score),Lmr1 (Q6ZMQ8),2.52
same,Mean Kinase Statistic,Lmr1 (Q6ZMQ8),-1.33
same,Mean Significance Score,Lmr1 (Q6ZMQ8),1.989
same,Mean Specificity Score,Lmr1 (Q6ZMQ8),0.4793

# From publication PMC8766756, “Insights on Cancer Cell Inhibition, Subcellular Activities, and Kinase Profile of Phenylacetamides Pending 1H-Imidazol-5-One Variants” (Frontiers in Pharmacology, 2022)
